Results as given in paper PMC7972453, “The allosteric modulation of complement C5 by knob domain peptides” (eLife, 2021).
Bridges are numbered along the chain shown (N, C = ends). Where no end group is shown, it is not given here.

Tests used:
C5 activation by the CP = assay: Complement activation assays, classical pathway (overall); assay type: biochemical; conditions: C5a release, C5b neo-epitope formation and C9 deposition ELISAs; human serum
Protocol: For functional characterisation of the peptides, we performed complement assays for CP and AP activation in human serum, assessing C5b neo-epitope formation and C5a release (schematically presented in Figure 1A, B), in combination with orthogonal ELISAs, measuring C3b and C9 deposition.
For the C3 and C9 ELISAs, microtiter plates (MaxiSorp; Nunc) were incubated overnight at 4°C with 50 µL of a solution of in 75 mM sodium carbonate (pH 9.6) containing either 2.5 µg/mL aggregated human IgG (Sigma-Aldrich, Gillingham, UK) for CP or 20 µg/mL zymosan (Sigma-Aldrich, Gillingham, UK) for AP. As a negative control, wells were coated with 1% (w/v) bovine serum albumin (BSA)/PBS. […] Complement activation was assessed through detection of deposited complement activation factors using specific antibodies against C3b (rat anti-human C3d HM2198, Hycult, Uden, The Netherlands) and C9 (goat anti-human C9, A226, Complement Technologies Tyler, TX) at a 1:1000 dilution. Bound primary antibodies were detected with […]-conjugated goat anti-rat (ab97057, Abcam, Cambridge, UK) or rabbit anti-goat (P0449, Agilent Dako, Santa Clara, CA) secondary antibodies at a 1:1000 dilution. Bound HRP-conjugated antibodies were detected using TMB One solution (Eco-TEK – manufactured by Bio-TEK, Winooski, VT) with absorbance measured at 450 nm. […]

[1] = system: alternative pathway C5b deposition (complement C5); assay: Alternative pathway C5b deposition ELISA; assay type: biochemical, human; conditions: n=3 (K8: n=5; K92: n=4), ND* = Not detected
Text: Figure 1. Functional modulation of C5 via knob domain peptides. […] Following activation of C1q via antibody Fc, C4 and C2 are cleaved and form C4bC2a (the CP C3 convertase) which cleaves C3 into C3a (not shown) and C3b. At high C3b concentrations, C4bC2aC3b (the CP […]) forms and cleaves C5 into C5a and C5b. C5b associates with C6 and forms the membrane attack complex (MAC) with C7, C8, and multiple copies of C9. […] In the presence of factor B and factor D, C3bBb (the AP C3 convertase) generates additional C3b, prompting formation of C3bBbC3b (the AP C5 convertase), which cleaves C5 into C5a and C5b, driving MAC formation. CP-driven ELISAs (C) and AP-driven ELISAs (D) are shown. For both pathways, the inhibition of C3d (the surface-associated domain of C3b, which is upstream of C5 inhibition), C5a release, and C5b neo-epitope formation and C9 deposition were tracked within the MAC. […] For the AP assays, 5% serum (v/v) gives a putative C5 concentration of 20 nM. For the CP assays, 1% serum (v/v) gives a putative C5 concentration of 4 nM, based on a reported C5 serum concentration of 397 nM/75 µg/mL ([Sjöholm, 1975]).
For the C5b ELISA, assays were run using the CP and AP Complement functional ELISA kits (Svar Life Science, Malmö, Sweden). For sample preparation, serum was diluted as per the respective protocol for the CP and AP assays. […]

[2] = system: sheep erythrocytes (classical pathway haemolysis); assay: Inhibition of classical pathway haemolysis; assay type: cell-based, sheep erythrocytes; normal human serum; conditions: 1% serum
Protocol: GVB^++ or Mg EGTA buffers, which had been supplemented with 2.5% glucose (w/v), were used for the CP and AP assays, respectively. For the AP, 150 µL of rabbit erythrocytes (TCS Biosciences, Botolph Claydon, UK) were washed twice, by addition of 1 mL of buffer and centrifugation at 800 ×g for 1 min, and finally resuspended in 500 µL of buffer. For the CP, 150 µL sheep erythrocytes (TCS Biosciences, Botolph Claydon, UK) were washed twice with 1 mL of buffer and sensitised with a 1/1000 dilution of rabbit anti-sheep red blood cell stroma antibody (S1389, Sigma Aldrich, Gillingham, UK). After a 30°C/30 min incubation, with shaking, the cells were rewashed and resuspended with 500 µL of buffer. Serial dilutions of peptide were prepared in the respective buffers and normal human serum was added at 1% for the CP and 4.5% for the AP (corresponding to CH50 of the serum). Also, 90 µL of peptide–serum mixtures were plated into a V-bottom 96-well microtiter plate (Corning) and 10 µL of erythrocytes were added. Plates were incubated for 30 min at 37°C, with shaking. Finally, 50 µL of buffer was added, the plates centrifuged at 800 ×g, and 80 µL of supernatant was transferred to an ELISA plate (Nunc) and absorbance measured at 405 nm.
Table 1.7. Inhibition of classical pathway haemolysis.

[3] = system: alternative pathway mediated C5a release (complement C5); assay: Inhibition of alternative pathway mediated C5a release (ELISA); assay type: biochemical, human; conditions: AP C5a release; n=3 (K8: n=4); ND* = Not detected
Protocol: For the C5b ELISA, assays were run using the CP and AP Complement functional ELISA kits (Svar Life Science, Malmö, Sweden). For sample preparation, serum was diluted as per the respective protocol for the CP and AP assays. Serial dilutions of peptides were prepared and allowed to incubate with serum for 15 min at room temperature prior to plating.
For the C5a ELISA, assays were run using the Complement C5a Human ELISA Kit (Invitrogen, Renfrew, UK). For sample preparation, at the end of the 37°C incubation of the serum/peptide samples on the C5b ELISA plate, 50 µL of the diluted, activated serum was transferred to a C5a ELISA plate containing 50 µL/well of assay buffer. All subsequent experimental steps were performed as described in the protocol.
Table 1.4. Inhibition of alternative pathway mediated C5a release.
Data from n=3, unless otherwise stated

In the case of “SVCPDGFDWGYGCAAGSSRFCTRHDWCCYDERADSHTYGFCTGNRVENLYFQ (disulfide 3-28, 13-21, 27-41) [K8]”, the “inhibition of C5 activation, CP assays (in words)” value (C5 activation by the CP) is reported as “partially inhibiting both the AP and CP”, the “Average Emax” value ([1]; AP C5b ELISA, preincubated 15 min RT) is reported as 91.8% and the IC50 ([1]; AP functional ELISA kit (Svar), peptide preincubated with human serum 15 min RT, AP 5% serum, putative 20 nM C5, read-out: Geomean IC50) is reported as 29.2 nM. For the same sequence, the “Average Emax” value ([2]; CP haemolysis, n=3, ND* = Not detected) was 95.6%, the “inhibition of CP haemolysis (in words)” value ([2]; sheep erythrocytes) was “efficacious in the CP assay” and the “Average Emax” value [3] was 71.8%.
